Measurements as given in patent US12509468B2, “Quindoline compounds and uses thereof” (Arizona Board of Regents on Behalf of the University of …, priority 2019, dated 2025).

What was measured:
[1] = system: c-Myc oligomer (parallel G-quadruplex); assay: Circular dichroism melting (ΔTm) with 1 equivalent of ligand; type: binding; details: increase in melting temperature with 1 equivalent of ligand (DNA:Ligand=1:1)
Description: Non-labeled oligomers were prepared as described for FRET (Example VII). Ligands interacting with the c-Myc FRET oligomer are further examined for DNA secondary structure stabilization by CD (Sun et al., 2005). Briefly, the CD absorption spectra at 262 nm (parallel G-quadruplex) with increasing temperatures (4-95° C.) is examined in the absence and presence of 1 equivalence of ligand. TM is calculated by GraphPad Prizm using a top-to-bottom nonlinear fit, and ΔTM are calculated for each ligands.

[2] = system: DNA oligomer containing the G-quadruplex forming region of the c-Myc promoter; assay: FRET assay with c-Myc G-quadruplex oligomer (ED35); type: binding; details: concentration of ligand that decreases relative fluorescence of DNA FRET probe (1 μM) by 35%
Description: All synthesized ligands are examined with a DNA oligomer containing the G-quadruplex forming region of the c-Myc promoter (d[[…]]). The oligomer is tagged with a 5′-FAM fluorophore and a 3′-Black Hole Quencher molecule. 1 μM oligomer is linearized by heating at 95° C. for 5 minutes in a 50 mM Tris-Acetate buffer (pH 7.1) and slowly cooled back to room temperature, allowing formation of a G-quadruplex. Ligand is added to the oligomer probe at various concentrations spanning a 2-3 log range (high dose of 10 μM), allowed to incubate for 15 minutes in the dark and fluorescence is read on the BioTek Synergy HT spectrophotometer (Biotek, Winooski, VT). Drug autofluorescence is subtracted, data is normalized to oligomer only, and ED35s are calculated from data fit by a sigmoidal top-to-bottom nonlinear regression. ED35s<10 μM are further analyzed by circular dichroism (CD).
Experimental values for compounds tested according to one or more of the preceding examples are reported in the following table, including, ED35 is the concentration of ligand that decreases the relative fluorescence of a DNA FRET probe (1 μM) by 35% (identified as the threshold to minimize false negatives). ED35 values are reported in ranges: A: >10 μM; B: ≤10 μM.

AR mRNA = AR mRNA expression by RT-qPCR; type: cell-based; details: 10 μM; for AR mRNA: LNCaP and C4-2 cells, 12 and 24 hours
Description: (§1) This example provides specific compounds of the present invention suppress AR protein expression in androgen-dependent (LNCaP) and CRPC tumor cells ([…]) after a 24 h treatment at 10 μM (FIG. 1A) (Cell lysates from LNCaP and C4-2 cells treated with GSA compounds at a concentration of 10 μM for 24 hours were analyzed for expression of AR, NCL, and GAPDH by immunoblotting). GSA0932 suppress AR expression in 22RV1 and VCaP tumor cells, after 24 h of treatment reaching its maximal inhibitory activity at a concentration of 3 and 5 μM respectively (FIG. 1B) (Cell lysates from indicated prostate cancer cell lines treated with increasing concentrations GSA0932 for 24 hours were analyzed for AR, NCL, and GAPDH by immunoblotting). […] Values are means±s.e.m; p<0.05 (*); n=3).
(§2) To measure the dependency of GSA0932-mediated AR suppression on the AR G4-element, we generated a stable LNCaP cell lines expressing a dual reporter in which Gaussia luciferase is driven by either a wild type or a mutant AR promoter lacking the G4 element, and secreted alkaline phosphatase (SEAP) is driven by a constitutive promoter. […] However, GSA0932 had no effect on the G4-deleted AR reporter (FIG. 1E). […] Knocking down NCL expression alleviated the GSA0932 inhibitory activity against AR mRNA expression compared with control cells (FIG. 1G) (LNCaP cells were transfected with scrambled (Scr) or NCL siRNAs and […] post-transfection, cells were treated with DMSO, 10 μM GSA0932, or […] GSA1502 for 12 hours. Extracted RNA was analyzed for AR expression by RT-qPCR).

AR = AR protein expression by immunoblotting in prostate cancer cells; type: cell-based; details: for concentration of maximal inhibitory activity on AR expression: 24 h of treatment
Description: as §1

PDGF-Rβ G-quadruplex = assay: Competition dialysis, ligand bound to G-quadruplex; type: binding; details: 2 μM of compound
Description: (§3) Following the competition dialysis assay method of the Chaires group (Ragazzon et al., Methods 2007, 42, 173-182, which is hereby incorporated by reference in its entirety) using 2 μM of the referenced compound, the concentration of ligand bound to G-quadruplex structure for a variety of target genes were determined.

Telomeric G-quadruplex = assay: Competition dialysis, ligand bound to G-quadruplex; type: binding; details: 2 μM of compound
Description: as §3

HIF-1α G-quadruplex = assay: Competition dialysis, ligand bound to G-quadruplex; type: binding; details: 2 μM of compound
Description: as §3

Bcl-2 G-quadruplex = assay: Competition dialysis, ligand bound to G-quadruplex; type: binding; details: 2 μM of compound
Description: as §3

hTERT G-quadruplex = assay: Competition dialysis, ligand bound to G-quadruplex; type: binding; details: 2 μM of compound
Description: as §3

VEGF G-quadruplex = assay: Competition dialysis, ligand bound to G-quadruplex; type: binding; details: 2 μM of compound
Description: as §3

MYC G-quadruplex = assay: Competition dialysis, ligand bound to G-quadruplex; type: binding; details: 2 μM of compound
Description: as §3

PDGFA G-quadruplex = assay: Competition dialysis, ligand bound to G-quadruplex; type: binding; details: 2 μM of compound
Description: as §3

KLK3, also known as PSA = assay: mRNA expression of AR target gene by RT-qPCR; type: cell-based; details: 12 hours; 10 μM (LNCaP, C4-2), 5 μM (VCaP), 3 μM (22RV1)
ARv7 splice variant = ARv7 splice variant expression by immunoblotting in 22RV1; type: cell-based; details: 22RV1 cells, 24 h
Description: as §1

[3] = system: wild type AR promoter (AR G4) reporter; assay: Dual reporter, Gaussia luciferase driven by wild type AR promoter, in LNCaP; type: cell-based; details: LNCaP stable cells, 10 μM, 12 hours
From the text: as §2

C4-2 cells = assay: Cell viability by MTT, 48 h; type: cell-based; details: C4-2, 48 h
From the text: (§4) Table V provides the IC50 values for GSA0932.

LNCaP cells = assay: Cell viability by MTT, 48 h; type: cell-based; details: Homo sapiens
From the text: as §4

22Rv1 cells = assay: Cell viability by MTT, 48 h; type: cell-based; details: Homo sapiens, 22Rv1, 48 h
From the text: as §4

VCaP cells = assay: Cell viability by MTT, 48 h; type: cell-based; details: Homo sapiens
From the text: as §4

PC3 cells = assay: Cell viability by MTT, 48 h; type: cell-based; details: Homo sapiens, PC-3, PC3, 48 h
From the text: as §4

[4] = system: RWPE non-malignant prostate cells; assay: Cell viability by MTT, 48 h; type: cell-based
From the text: as §4

G4-deleted AR reporter = assay: Dual reporter, Gaussia luciferase driven by mutant AR promoter lacking the G4 element, in LNCaP; type: cell-based; details: LNCaP stable cells, 10 μM, 12 hours
From the text: as §2

[5] = system: AR-positive tumor cells versus non-AR expressing cells; assay: Cytotoxic activity across prostate cell lines by MTT; type: cell-based; details: 48 h
From the text: as §4

[6] = system: NCL bound to the G4-element of the AR promoter; assay: ChIP of NCL on AR G4; type: cell-based; details: LNCaP and C4-2 cells, 10 μM

SMILES: OC1CCN(CCN2CCCn3c4ccccc4c4nc5ccccc5c2c43)CC1 [Compound 2]
- ΔTm [1]: A (A: 0-10° C.)
- ED35 [2]: A (A: >10 μM)

SMILES: CN(C)CCN1CCCn2c3ccccc3c3nc4ccccc4c1c32 [GSA1502]
- AR mRNA (AR mRNA): does not affect
- AR protein expression (AR; LNCaP and C4-2 cells, 24 h, 10 μM): does not affect

SMILES: O=C(NCCCN1CCCn2c3ccccc3c3nc4ccccc4c1c32)C1C[C@@H](O)CN1 (stereo partly drawn) [Compound 11]
- ΔTm [1]: B (B: >10° C.)
- ED35 [2]: B (B: ≤10 μM)

SMILES: CN1CCN(CCCN2CCCn3c4ccccc4c4nc5ccccc5c2c43)CC1 [Compound 5]
- ΔTm [1]: A (A: 0-10° C.)
- ED35 [2]: A (A: >10 μM)

SMILES: CN1CCN(C(=O)NCCN2CCCn3c4ccccc4c4nc5ccccc5c2c43)CC1 [Compound 8]
- ΔTm [1]: B (B: >10° C.)
- ED35 [2]: B (B: ≤10 μM)

SMILES: c1ccc2c3c4c(nc2c1)c1ccccc1n4CCCN3CCN1CCOCC1 [Compound 1]
- ΔTm [1]: A (A: 0-10° C.)
- ED35 [2]: A (A: >10 μM)

SMILES: c1ccc2c3c4c(nc2c1)c1ccccc1n4CCCN3CCCN1CCCCC1 [Compound 15]
- ED35 [2]: B (B: ≤10 μM)

SMILES: Cl.c1ccc2c3c4c(nc2c1)c1ccccc1n4CCCN3CCCN1CCCCCC1 [Compound 6]
- ΔTm [1]: A (A: 0-10° C.)
- ED35 [2]: A (A: >10 μM)

SMILES: CN1CCN(C(=O)NCCCN2CCCn3c4ccccc4c4nc5ccccc5c2c43)CC1 [Compound 10]
- ΔTm [1]: A (A: 0-10° C.)
- concentration of ligand bound to G-quadruplex structure (PDGF-Rβ G-quadruplex): 8.3 µM
- concentration of ligand bound to G-quadruplex structure (Telomeric G-quadruplex): 2.9 µM
- concentration of ligand bound to G-quadruplex structure (HIF-1α G-quadruplex): 3.3 µM
- concentration of ligand bound to G-quadruplex structure (Bcl-2 G-quadruplex): 8.3 µM
- concentration of ligand bound to G-quadruplex structure (hTERT G-quadruplex): 9.5 µM
- concentration of ligand bound to G-quadruplex structure (VEGF G-quadruplex): 2.5 µM
- concentration of ligand bound to G-quadruplex structure (MYC G-quadruplex): 6.8 µM
- concentration of ligand bound to G-quadruplex structure (PDGFA G-quadruplex): 1.8 µM
- ED35 [2]: B (B: ≤10 μM)

SMILES: CN1CCN(C(=O)N2C[C@H](O)CC2C(=O)NCCCN2CCCn3c4ccccc4c4nc5ccccc5c2c43)CC1 (stereo partly drawn) [Compound 13]
- ΔTm [1]: A (A: 0-10° C.)
- ED35 [2]: B (B: ≤10 μM)

SMILES: c1ccc2c3c4c(nc2c1)c1ccccc1n4CCCN3CCCN1CCOCC1 [Compound 3]
- ΔTm [1]: A (A: 0-10° C.)
- concentration of ligand bound to G-quadruplex structure (PDGF-Rβ G-quadruplex): 0.0 µM
- concentration of ligand bound to G-quadruplex structure (Telomeric G-quadruplex): 1.0 µM
- concentration of ligand bound to G-quadruplex structure (HIF-1α G-quadruplex): 4.0 µM
- concentration of ligand bound to G-quadruplex structure (Bcl-2 G-quadruplex): 3.0 µM
- concentration of ligand bound to G-quadruplex structure (hTERT G-quadruplex): 10.5 µM
- concentration of ligand bound to G-quadruplex structure (VEGF G-quadruplex): 3.0 µM
- concentration of ligand bound to G-quadruplex structure (MYC G-quadruplex): 1.0 µM
- concentration of ligand bound to G-quadruplex structure (PDGFA G-quadruplex): 0.5 µM
- ED35 [2]: B (B: ≤10 μM)

SMILES: OC1CCN(CCN2CCCn3c4ccccc4c4nc5ccccc5c2c43)CC1 [GSA0932]
- mRNA expression of AR target gene KLK3 (PSA) (KLK3, also known as PSA): suppressed mRNA expression
- expression of ARv7 splice variant (ARv7 splice variant): inhibits the expression
- luciferase activity of wild type reporter [3]: significantly decreases luciferase activity
- AR mRNA (AR mRNA): significantly decreased
- inhibitory activity against AR mRNA expression after NCL knockdown (AR mRNA; LNCaP cells, NCL siRNA versus scrambled, 12 hours): alleviated
- IC50 (C4-2 cells): 2000 ± 40 nM
- IC50 (LNCaP cells): 1400 ± 260 nM
- IC50 (22Rv1 cells): 900 ± 110 nM
- IC50 (VCaP cells): 2800 ± 30 nM
- IC50 (PC3 cells): 4300 ± 160 nM
- IC50 [4]: 5400 ± 50 nM
- concentration of maximal inhibitory activity on AR expression (AR; 22RV1 cells): 3 µM
- concentration of maximal inhibitory activity on AR expression (AR; VCaP cells): 5 µM
- effect on G4-deleted AR reporter (G4-deleted AR reporter): had no effect
- cytotoxic activity, AR-positive versus non-AR expressing cells [5]: stronger cytotoxic activity against AR-positive tumor cells than non-AR expressing cells
- amount of NCL bound to the G4-element of the AR promoter [6]: increases the amount of NCL bound

SMILES: O=C(NCCN1CCCn2c3ccccc3c3nc4ccccc4c1c32)C1C[C@@H](O)CN1 (stereo partly drawn) [Compound 9]
- ΔTm [1]: B (B: >10° C.)
- ED35 [2]: B (B: ≤10 μM)

SMILES: c1ccc2c3c4c(nc2c1)c1ccccc1n4CCCN3CCCNc1ncnc2nc[nH]c12 [Compound 12]
- ΔTm [1]: A (A: 0-10° C.)
- ED35 [2]: B (B: ≤10 μM)

SMILES: OC1CCN(CCCN2CCCn3c4ccccc4c4nc5ccccc5c2c43)CC1 [Compound 7]
- ΔTm [1]: A (A: 0-10° C.)
- ED35 [2]: B (B: ≤10 μM)

SMILES: NCCCN1CCCn2c3ccccc3c3nc4ccccc4c1c32 [Compound 14]
- ΔTm [1]: A (A: 0-10° C.)
- ED35 [2]: B (B: ≤10 μM)

SMILES: OCCCN1CCCn2c3ccccc3c3nc4ccccc4c1c32 [Compound 4]
- ΔTm [1]: A (A: 0-10° C.)
- ED35 [2]: B (B: ≤10 μM)
